The record followed here is patent US11753407B2, “Compounds for treating spinal muscular atrophy” (PTC Therapeutics, Inc., priority 2012, dated 2023).

Series [1] concerns Smn protein in SMA patient fibroblast cells (GM03813). Kind of series: Smn protein assay in cultured cells (SMN HTRF). The class given is cell-based, human. The following applies: SMA patient fibroblast cells, 48 hours; for EC1.5x for Smn protein expression: 7-point concentration curve, SMN HTRF, concentration producing 1.5 times Smn protein vs DMSO vehicle control; for maximum fold (Fold) increase of Smn protein: 7-point concentration data, fold relative to vehicle control. The essentials: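 Fibroblasts, SMA patient; 5,000 cells/well; 7-pt curve, 3.16-fold serial dilution; 48 h, 37 °C, 5% CO2; RIPA lysis 1 h RT; anti-SMN d2 + kryptate overnight RT; HTRF 665/620 nm; fold vs DMSO; EC1.5×, max fold.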

The test system of series [2] is SMN2 minigene mRNA (SMN2-A minigene) in HEK293H cells. Kind of series: SMN2 minigene mRNA splicing RT-qPCR assay in cultured cells. The following applies: Homo sapiens, HEK293-H; concentration increasing full length SMN2 mRNA 1.5-fold relative to vehicle-treated cells; HEK293H cells with SMN2-A minigene, 24 hours, 7-point concentration data; read-out: EC1.5x for production of full length SMN2 mRNA. The class given is cell-based, human. The procedure, abridged: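 Stable SMN2-A minigene HEK293H; cpd 7-pt 3.16-fold series, 200× in DMSO, 24 h, 37 °C, n=2. Lysates → multiplex RT-qPCR (minigene FL + GAPDH), efficiency-corrected ΔΔCt vs vehicle. EC1.5× = 1.5-fold FL mRNA gain.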

`Cc1cn2nc(-c3cc(=O)n4cc(N5CCC(N6CCCC6)CC5)ccc4n3)cc2c(C)n1` [Compound 425, 2-(4,6-dimethylpyrazolo[1,5-a]pyrazin-2-yl)-7-[4-(pyrrolidin-1-yl)piperidin-1-yl]-4H-pyrido[1,2-a]pyrimidin-4-one]: the melting point was in the range of 215 to 218 °C. In series [1], the “EC1.5x for Smn protein expression” value is recorded as “**** (an EC1.5x≤0.3 μM is indicated by four stars (****))” and the “maximum fold (Fold) increase of Smn protein” value (“maximum fold (Fold) increase” below) is listed as “***** (a fold increase >1.65 is indicated by five stars (*****))”. Also, in series [2], the EC (1.5-fold increase) was under 0.1 µM.
`Cc1cn2nc(-c3cc(=O)n4cc(C5CCN(C6CCC6)CC5)cc(C)c4n3)cc2c(C)n1` [Compound 704, 7-(1-cyclobutylpiperidin-4-yl)-2-(4,6-dimethylpyrazolo[1,5-a]pyrazin-2-yl)-9-methyl-4H-pyrido[1,2-a]pyrimidin-4-one] registered a melting point of 228 to 237 °C. Further, in series [1], the “EC1.5x for Smn protein expression” value was “**** (an EC1.5x≤0.3 μM is indicated by four stars (****))”; the “maximum fold (Fold) increase” value is “**** (a fold increase between >1.5 and ≤1.65 is indicated by four stars (****))”. For the same compound, the EC (1.5-fold increase) in series [2] lay in the range of 0.1 to 0.3 µM.
`Cc1cn2nc(-c3cc(=O)n4cc(N5CC(N6CCCC6)C5)ccc4n3)cc2c(C)n1` [Compound 759, 2-(4,6-dimethylpyrazolo[1,5-a]pyrazin-2-yl)-7-[3-(pyrrolidin-1-yl)azetidin-1-yl]-4H-pyrido[1,2-a]pyrimidin-4-one] registered a melting point of 235 to 237 °C. Besides, in series [1], the “EC1.5x for Smn protein expression” value is “*** (an EC1.5× between >0.3 μM and ≤1 μM is indicated by three stars (***))”; the “maximum fold (Fold) increase” value was “***** (a fold increase >1.65 is indicated by five stars (*****))”. In series [2], the EC (1.5-fold increase) lay within 0.1 to 0.3 µM.
In turn, `COc1ccc(-c2cc(=O)n3cc(C4=CCN(C)CC4)c(C)cc3n2)cc1OC` [Compound 391, 2-(3,4-dimethoxyphenyl)-8-methyl-7-(1-methyl-1,2,3,6-tetrahydropyridin-4-yl)-4H-pyrido[1,2-a]pyrimidin-4-one] yielded a melting point of 174 to 178 °C. Further, the “maximum fold (Fold) increase” value in series [1] is “* (A maximum fold increase of ≤1.2 is indicated by one star (*))”. Further, the EC (1.5-fold increase) in series [2] is 1 to 3 µM.
With `Cc1nc2ccc(-c3cc(=O)n4nc(C5CCN(C)CC5)ccc4n3)cc2o1` [Compound 500, 2-(2-methyl-1,3-benzoxazol-6-yl)-7-(1-methylpiperidin-4-yl)-4H-pyrimido[1,2-b]pyridazin-4-one], the melting point was 272 to 275 °C. In series [1], the “EC1.5x for Smn protein expression” value is “*** (an EC1.5× between >0.3 μM and ≤1 μM is indicated by three stars (***))”; the “maximum fold (Fold) increase” value was “***** (a fold increase >1.65 is indicated by five stars (*****))”. The EC (1.5-fold increase) in series [2] fell in the range of 0.1 to 0.3 µM.
The compound `COc1ccc(-c2cc(=O)n3cc(N4CCC(N(C)C)CC4)cc(C)c3n2)cc1F` [Compound 328, 7-[4-(dimethylamino)piperidin-1-yl]-2-(3-fluoro-4-methoxyphenyl)-9-methyl-4H-pyrido[1,2-a]pyrimidin-4-one] showed a melting point of 141 to 145 °C. For the same compound, the “maximum fold (Fold) increase” value in series [1] was “*** (a fold increase between >1.35 and ≤1.5 is indicated by three stars (***))”. The EC (1.5-fold increase) in series [2] is under 0.1 µM.
The compound `Cc1cn2cc(-c3cc(=O)n4cc(N5CCN(C(C)C)CC5)ccc4n3)cc(F)c2n1` [Compound 373, 2-(8-fluoro-2-methylimidazo[1,2-a]pyridin-6-yl)-7-[4-(propan-2-yl)piperazin-1-yl]-4H-pyrido[1,2-a]pyrimidin-4-one] had a melting point of 260 to 264 °C. In series [1], the “EC1.5x for Smn protein expression” value is given as “**** (an EC1.5x≤0.3 μM is indicated by four stars (****))”; the “maximum fold (Fold) increase” value was “**** (a fold increase between >1.5 and ≤1.65 is indicated by four stars (****))”. Also, in series [2], the EC (1.5-fold increase) is under 0.1 µM.
Regarding `CCc1cc(-c2cc(=O)n3cc(N4CCN5CCC[C@@H]5C4)ccc3n2)cn2cc(C)nc12` [Compound 794, 2-(8-ethyl-2-methylimidazo[1,2-a]pyridin-6-yl)-7-[(8aR)-hexahydropyrrolo[1,2-a]pyrazin-2(1H)-yl]-4H-pyrido[1,2-a]pyrimidin-4-one], the melting point lay in the range of 231 to 235 °C. In addition, in series [1], the “EC1.5x for Smn protein expression” value is given as “**** (an EC1.5x≤0.3 μM is indicated by four stars (****))” and the “maximum fold (Fold) increase” value is listed as “***** (a fold increase >1.65 is indicated by five stars (*****))”. For the same compound, the EC (1.5-fold increase) in series [2] is under 0.1 µM.
`O=c1cc(-c2ccc(Cl)cc2)nc2ccc(N3CCNCC3)cn12` [Compound 42, 2-(4-chlorophenyl)-7-(piperazin-1-yl)-4H-pyrido[1,2-a]pyrimidin-4-one]: the melting point fell in the range of 207 to 212 °C. Moreover, the “maximum fold (Fold) increase” value in series [1] is “* (A maximum fold increase of ≤1.2 is indicated by one star (*))”. For the same compound, in series [2], the EC (1.5-fold increase) lay within 1 to 3 µM.
`COc1ccc(-c2cc(=O)n3cc(N4C[C@@H](O)[C@H](N(C)C)C4)ccc3n2)cc1F` [Compound 206, 7-[(3R,4R)-3-(dimethylamino)-4-hydroxypyrrolidin-1-yl]-2-(3-fluoro-4-methoxyphenyl)-4H-pyrido[1,2-a]pyrimidin-4-one] came in with a melting point of 223 to 228 °C. Further, in series [1], the “maximum fold (Fold) increase” value is “** (a fold increase between >1.2 and ≤1.35 is indicated by two stars (**))”. For the same compound, the EC (1.5-fold increase) in series [2] was 1 to 3 µM.
As to `Cc1nc2cc(-c3cc(=O)n4cc(N5CCC(N)CC5)ccc4n3)ccc2s1` [Compound 348, 7-(4-aminopiperidin-1-yl)-2-(2-methyl-1,3-benzothiazol-5-yl)-4H-pyrido[1,2-a]pyrimidin-4-one], the melting point lay in the range of 190 to 192 °C. For the same compound, the “maximum fold (Fold) increase” value in series [1] was “** (a fold increase between >1.2 and ≤1.35 is indicated by two stars (**))”. For the same compound, the EC (1.5-fold increase) in series [2] fell in the range of 0.1 to 0.3 µM.
Turning to `COc1ccc(-c2cc(=O)n3cc(C4=CCN(C)CC4)ccc3n2)cc1OC` [Cpd 188, 2-(3,4-dimethoxyphenyl)-7-(1-methyl-1,2,3,6-tetrahydropyridin-4-yl)-4H-pyrido[1,2-a]pyrimidin-4-one], the melting point fell in the range of 165 to 168 °C. Also, in series [1], the “EC1.5x for Smn protein expression” value was “*** (an EC1.5× between >0.3 μM and ≤1 μM is indicated by three stars (***))”; the “maximum fold (Fold) increase” value is recorded as “***** (a fold increase >1.65 is indicated by five stars (*****))”. Also, the EC (1.5-fold increase) in series [2] lay in the range of 0.1 to 0.3 µM.
For the compound `Cc1cc(C2CCN(C3CCC3)CC2)cn2c(=O)cc(-c3ccc4nn(C)cc4c3)nc12` [Compound 710, 7-(1-cyclobutylpiperidin-4-yl)-9-methyl-2-(2-methyl-2H-indazol-5-yl)-4H-pyrido[1,2-a]pyrimidin-4-one], the melting point was 232 to 235 °C. Further, in series [1], the “EC1.5x for Smn protein expression” value is “**** (an EC1.5x≤0.3 μM is indicated by four stars (****))” and the “maximum fold (Fold) increase” value is “***** (a fold increase >1.65 is indicated by five stars (*****))”. For the same compound, the EC (1.5-fold increase) in series [2] was under 0.1 µM.
The like results for `CCc1nc(C)cn2nc(-c3cc(=O)n4cc(C5CCN(C(C)C)CC5)ccc4n3)cc12` [Compound 679, 2-(4-ethyl-6-methylpyrazolo[1,5-a]pyrazin-2-yl)-7-[1-(propan-2-yl)piperidin-4-yl]-4H-pyrido[1,2-a]pyrimidin-4-one] were, in that order, 228 to 230 °C, “**** (an EC1.5x≤0.3 μM is indicated by four stars (****))”, “***** (a fold increase >1.65 is indicated by five stars (*****))” and under 0.1 µM.
`Cc1cn2cc(-c3cc(=O)n4nc(C5CCNCC5)ccc4n3)cc(C)c2n1` [Compound 691, 2-(2,8-dimethylimidazo[1,2-a]pyridin-6-yl)-7-(piperidin-4-yl)-4H-pyrimido[1,2-b]pyridazin-4-one] had a melting point of 215 to 217 °C. In series [1], the “EC1.5x for Smn protein expression” value is recorded as “**** (an EC1.5x≤0.3 μM is indicated by four stars (****))” and the “maximum fold (Fold) increase” value was “***** (a fold increase >1.65 is indicated by five stars (*****))”. Further, the EC (1.5-fold increase) in series [2] was under 0.1 µM.
The compound `COc1cc(-c2cc(=O)n3cc(N4CCNCC4)ccc3n2)cc(F)c1F` [Compound 218, 2-(3,4-difluoro-5-methoxyphenyl)-7-(piperazin-1-yl)-4H-pyrido[1,2-a]pyrimidin-4-one] registered a melting point of 155 to 160 °C. Also, in series [1], the “EC1.5x for Smn protein expression” value was “** (an EC1.5× between >1 μM and ≤3 μM is indicated by two stars (**))”; the “maximum fold (Fold) increase” value was “*** (a fold increase between >1.35 and ≤1.5 is indicated by three stars (***))”. For the same compound, the EC (1.5-fold increase) in series [2] is 0.1 to 0.3 µM.
The compound `COc1cc(F)cc(-c2cc(=O)n3cc(N4CCNCC4)ccc3n2)c1` [Compound 139, 2-(3-fluoro-5-methoxyphenyl)-7-(piperazin-1-yl)-4H-pyrido[1,2-a]pyrimidin-4-one] displayed a melting point of 168 to 170 °C. In series [1], the “maximum fold (Fold) increase” value was “*** (a fold increase between >1.35 and ≤1.5 is indicated by three stars (***))”. In series [2], the EC (1.5-fold increase) fell in the range of 1 to 3 µM.
